Source: PubChem BioAssay (NCI)
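Compound exposure: 48 hours, 5 concentrations, 96-well plates. The concentration for full growth arrest is given as TGI.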

What was measured:
Test in all cases: NCI tumour cell line growth inhibition, 48 h
786-0 renal = tested on: 786-0 renal
A498 renal = tested on: A498 renal
A549 NSCLC = tested on: A549 NSCLC
ACHN renal = tested on: ACHN renal
CAKI-1 renal = tested on: CAKI-1 renal
CCRF-CEM leukemia = tested on: CCRF-CEM leukemia
COLO 205 colon = tested on: COLO 205 colon
DMS 114 small cell lung = tested on: DMS 114 small cell lung
DMS 273 small cell lung = tested on: DMS 273 small cell lung
EKVX NSCLC = tested on: EKVX NSCLC
HCT-116 colon = tested on: HCT-116 colon
HCT-15 colon = tested on: HCT-15 colon
HL-60(TB) leukemia = tested on: HL-60(TB) leukemia
HOP-18 NSCLC = tested on: HOP-18 NSCLC
HOP-62 NSCLC = tested on: HOP-62 NSCLC
HOP-92 NSCLC = tested on: HOP-92 NSCLC
HT29 colon = tested on: HT29 colon
IGROV1 ovarian = tested on: IGROV1 ovarian
K-562 leukemia = tested on: K-562 leukemia
KM12 colon = tested on: KM12 colon
KM20L2 colon = tested on: KM20L2 colon
LOX IMVI melanoma = tested on: LOX IMVI melanoma
LXFL 529 NSCLC = tested on: LXFL 529 NSCLC
M14 melanoma = tested on: M14 melanoma
M19-MEL melanoma = tested on: M19-MEL melanoma
MALME-3M melanoma = tested on: MALME-3M melanoma
MOLT-4 leukemia = tested on: MOLT-4 leukemia
NCI-H226 lung = tested on: NCI-H226 lung
NCI-H23 lung = tested on: NCI-H23 lung
NCI-H460 lung = tested on: NCI-H460 lung
NCI-H522 lung = tested on: NCI-H522 lung
OVCAR-4 ovarian = tested on: OVCAR-4 ovarian
OVCAR-5 ovarian = tested on: OVCAR-5 ovarian
OVCAR-8 ovarian = tested on: OVCAR-8 ovarian
RPMI-8226 leukemia = tested on: RPMI-8226 leukemia
RXF 393 renal = tested on: RXF 393 renal
RXF-631 renal = tested on: RXF-631 renal
SF-268 CNS = tested on: SF-268 CNS
SF-295 CNS = tested on: SF-295 CNS
SF-539 CNS = tested on: SF-539 CNS
SK-MEL-2 melanoma = tested on: SK-MEL-2 melanoma
SK-MEL-28 melanoma = tested on: SK-MEL-28 melanoma
SK-MEL-5 melanoma = tested on: SK-MEL-5 melanoma
SK-OV-3 ovarian = tested on: SK-OV-3 ovarian
SN12C renal = tested on: SN12C renal
SNB-19 CNS = tested on: SNB-19 CNS
SNB-75 CNS = tested on: SNB-75 CNS
SNB-78 CNS = tested on: SNB-78 CNS
SR leukemia = tested on: SR leukemia
SW-620 colon = tested on: SW-620 colon
TK-10 renal = tested on: TK-10 renal
U251 CNS = tested on: U251 CNS
UACC-257 melanoma = tested on: UACC-257 melanoma
UACC-62 melanoma = tested on: UACC-62 melanoma
UO-31 renal = tested on: UO-31 renal
XF 498 CNS = tested on: XF 498 CNS
DLD-1 colon = tested on: DLD-1 colon
HCC-2998 colon = tested on: HCC-2998 colon
OVCAR-3 ovarian = tested on: OVCAR-3 ovarian

CC(C)(C)N/N=C(\Cc1occc(=O)c1O)C(=O)Nc1ccc([N+](=O)[O-])cc1[N+](=O)[O-]
TGI (786-0 renal): > 100 µM
TGI (A498 renal): > 100 µM
TGI (A549 NSCLC): > 100 µM
TGI (ACHN renal): > 100 µM
TGI (CAKI-1 renal): > 100 µM
TGI (CCRF-CEM leukemia): > 100 µM
TGI (COLO 205 colon): > 100 µM
TGI (DMS 114 small cell lung): > 100 µM
TGI (DMS 273 small cell lung): > 100 µM
TGI (EKVX NSCLC): > 100 µM
TGI (HCT-116 colon): > 100 µM
TGI (HCT-15 colon): > 100 µM
TGI (HL-60(TB) leukemia): > 100 µM
TGI (HOP-18 NSCLC): > 100 µM
TGI (HOP-62 NSCLC): > 100 µM
TGI (HOP-92 NSCLC): > 100 µM
TGI (HT29 colon): > 100 µM
TGI (IGROV1 ovarian): > 100 µM
TGI (K-562 leukemia): > 100 µM
TGI (KM12 colon): > 100 µM
TGI (KM20L2 colon): > 100 µM
TGI (LOX IMVI melanoma): > 100 µM
TGI (LXFL 529 NSCLC): > 100 µM
TGI (M14 melanoma): > 100 µM
TGI (M19-MEL melanoma): > 100 µM
TGI (MALME-3M melanoma): > 100 µM
TGI (MOLT-4 leukemia): > 100 µM
TGI (NCI-H226 lung): > 100 µM
TGI (NCI-H23 lung): > 100 µM
TGI (NCI-H460 lung): > 100 µM
TGI (NCI-H522 lung): > 100 µM
TGI (OVCAR-4 ovarian): > 100 µM
TGI (OVCAR-5 ovarian): > 100 µM
TGI (OVCAR-8 ovarian): > 100 µM
TGI (RPMI-8226 leukemia): > 100 µM
TGI (RXF 393 renal): > 100 µM
TGI (RXF-631 renal): > 100 µM
TGI (SF-268 CNS): > 100 µM
TGI (SF-295 CNS): > 100 µM
TGI (SF-539 CNS): > 100 µM
TGI (SK-MEL-2 melanoma): > 100 µM
TGI (SK-MEL-28 melanoma): > 100 µM
TGI (SK-MEL-5 melanoma): > 100 µM
TGI (SK-OV-3 ovarian): > 100 µM
TGI (SN12C renal): > 100 µM
TGI (SNB-19 CNS): > 100 µM
TGI (SNB-75 CNS): > 100 µM
TGI (SNB-78 CNS): > 100 µM
TGI (SR leukemia): > 100 µM
TGI (SW-620 colon): > 100 µM
TGI (TK-10 renal): > 100 µM
TGI (U251 CNS): > 100 µM
TGI (UACC-257 melanoma): > 100 µM
TGI (UACC-62 melanoma): > 100 µM
TGI (UO-31 renal): > 100 µM
TGI (XF 498 CNS): > 100 µM

N#CNC(N)=NCCO
TGI (786-0 renal): > 100 µM
TGI (A498 renal): > 100 µM
TGI (A549 NSCLC): > 100 µM
TGI (ACHN renal): > 100 µM
TGI (CAKI-1 renal): > 100 µM
TGI (COLO 205 colon): > 100 µM
TGI (DLD-1 colon): > 100 µM
TGI (DMS 114 small cell lung): > 100 µM
TGI (DMS 273 small cell lung): > 100 µM
TGI (EKVX NSCLC): > 100 µM
TGI (HCC-2998 colon): > 100 µM
TGI (HCT-116 colon): > 100 µM
TGI (HCT-15 colon): > 100 µM
TGI (HL-60(TB) leukemia): > 100 µM
TGI (HOP-18 NSCLC): > 100 µM
TGI (HOP-62 NSCLC): > 100 µM
TGI (HOP-92 NSCLC): > 100 µM
TGI (HT29 colon): > 100 µM
TGI (IGROV1 ovarian): > 100 µM
TGI (K-562 leukemia): > 100 µM
TGI (KM12 colon): > 100 µM
TGI (KM20L2 colon): > 100 µM
TGI (LXFL 529 NSCLC): > 100 µM
TGI (M14 melanoma): > 100 µM
TGI (M19-MEL melanoma): > 100 µM
TGI (MALME-3M melanoma): > 100 µM
TGI (MOLT-4 leukemia): > 100 µM
TGI (NCI-H226 lung): > 100 µM
TGI (NCI-H23 lung): > 100 µM
TGI (NCI-H460 lung): > 100 µM
TGI (NCI-H522 lung): > 100 µM
TGI (OVCAR-3 ovarian): > 100 µM
TGI (OVCAR-4 ovarian): > 100 µM
TGI (OVCAR-5 ovarian): > 100 µM
TGI (OVCAR-8 ovarian): > 100 µM
TGI (RPMI-8226 leukemia): > 100 µM
TGI (RXF 393 renal): 68.3 µM
TGI (RXF-631 renal): > 100 µM
TGI (SF-268 CNS): > 100 µM
TGI (SF-295 CNS): > 100 µM
TGI (SF-539 CNS): > 100 µM
TGI (SK-MEL-2 melanoma): > 100 µM
TGI (SK-MEL-28 melanoma): > 100 µM
TGI (SK-MEL-5 melanoma): > 100 µM
TGI (SK-OV-3 ovarian): > 100 µM
TGI (SN12C renal): > 100 µM
TGI (SNB-19 CNS): > 100 µM
TGI (SNB-75 CNS): > 100 µM
TGI (SNB-78 CNS): > 100 µM
TGI (SR leukemia): 86.2 µM
TGI (SW-620 colon): 35.9 µM
TGI (TK-10 renal): > 100 µM
TGI (U251 CNS): > 100 µM
TGI (UACC-257 melanoma): > 100 µM
TGI (UACC-62 melanoma): > 100 µM
TGI (UO-31 renal): > 100 µM
TGI (XF 498 CNS): > 100 µM

CCCN(CCCN)/[N+]([O-])=N\O
TGI (786-0 renal): > 100 µM
TGI (A549 NSCLC): > 100 µM
TGI (ACHN renal): > 100 µM
TGI (CAKI-1 renal): > 100 µM
TGI (CCRF-CEM leukemia): > 100 µM
TGI (COLO 205 colon): > 100 µM
TGI (DLD-1 colon): > 100 µM
TGI (DMS 114 small cell lung): > 100 µM
TGI (DMS 273 small cell lung): > 100 µM
TGI (EKVX NSCLC): 0.921 µM
TGI (HCC-2998 colon): > 100 µM
TGI (HCT-116 colon): > 100 µM
TGI (HCT-15 colon): > 100 µM
TGI (HL-60(TB) leukemia): > 100 µM
TGI (HOP-18 NSCLC): > 100 µM
TGI (HOP-62 NSCLC): > 100 µM
TGI (HOP-92 NSCLC): > 100 µM
TGI (HT29 colon): > 100 µM
TGI (IGROV1 ovarian): > 100 µM
TGI (K-562 leukemia): > 100 µM
TGI (KM12 colon): > 100 µM
TGI (KM20L2 colon): 2.74 µM
TGI (LXFL 529 NSCLC): > 100 µM
TGI (M14 melanoma): > 100 µM
TGI (M19-MEL melanoma): > 100 µM
TGI (MALME-3M melanoma): > 100 µM
TGI (MOLT-4 leukemia): > 100 µM
TGI (NCI-H226 lung): > 100 µM
TGI (NCI-H23 lung): > 100 µM
TGI (NCI-H460 lung): > 100 µM
TGI (NCI-H522 lung): > 100 µM
TGI (OVCAR-3 ovarian): > 100 µM
TGI (OVCAR-4 ovarian): > 100 µM
TGI (OVCAR-5 ovarian): > 100 µM
TGI (OVCAR-8 ovarian): > 100 µM
TGI (RPMI-8226 leukemia): > 100 µM
TGI (RXF 393 renal): > 100 µM
TGI (RXF-631 renal): > 100 µM
TGI (SF-268 CNS): > 100 µM
TGI (SF-295 CNS): > 100 µM
TGI (SF-539 CNS): > 100 µM
TGI (SK-MEL-2 melanoma): > 100 µM
TGI (SK-MEL-28 melanoma): > 100 µM
TGI (SK-MEL-5 melanoma): > 100 µM
TGI (SK-OV-3 ovarian): > 100 µM
TGI (SN12C renal): > 100 µM
TGI (SNB-19 CNS): > 100 µM
TGI (SNB-75 CNS): > 100 µM
TGI (SNB-78 CNS): > 100 µM
TGI (SR leukemia): > 100 µM
TGI (SW-620 colon): > 100 µM
TGI (U251 CNS): > 100 µM
TGI (UACC-257 melanoma): > 100 µM
TGI (UACC-62 melanoma): 0.831 µM
TGI (UO-31 renal): > 100 µM
